Assay results from ChEMBL document CHEMBL4002605, “Synthesis, identification and in vitro biological evaluation of some novel quinoline incorporated 1,3-thiazinan-4-one derivatives” (Bioorg Med Chem Lett, 2017).
≈ marks a conversion by molar mass, not a printed value.

Key:
[1] = system: Mycobacterium tuberculosis; experiment: Antitubercular activity against Mycobacterium tuberculosis H37Rv at 6 ug/mL; type: functional
Clostridium tetani = experiment: Antibacterial activity against Clostridium tetani MTCC 449 by broth microdilution assay method; type: functional
Plasmodium falciparum = experiment: Antimalarial activity against Plasmodium falciparum; type: functional
Salmonella typhi = experiment: Antibacterial activity against Salmonella typhi MTCC 98 by broth microdilution assay method; type: functional, Salmonella enterica subsp. enterica serovar Typhi; details: Salmonella enterica
Bacillus subtilis = experiment: Antibacterial activity against Bacillus subtilis MTCC 441 by broth microdilution assay method; type: functional
Vibrio cholerae = experiment: Antibacterial activity against Vibrio cholerae MTCC 3906 by broth microdilution assay method; type: functional
Escherichia coli = experiment: Antibacterial activity against Escherichia coli MTCC 443 by broth microdilution assay method; type: functional
Streptococcus pneumoniae = experiment: Antibacterial activity against Streptococcus pneumoniae MTCC 1936 by broth microdilution assay method; type: functional

Compound	inhibition at 6 µg/mL [1]	MIC (Clostridium tetani)	IC50 (Plasmodium falciparum)	MIC (Salmonella typhi)	MIC (Bacillus subtilis)	MIC (Vibrio cholerae)	MIC (Escherichia coli)	MIC (Streptococcus pneumoniae)
O=C1CCSC(c2ccc(Cl)cc2)N1CCCCNc1ccnc2cc(Cl)ccc12 (centres undefined)	60%	125 mg/L (≈ 271 µM)	0.14 mg/L (≈ 0.304 µM)	125 mg/L (≈ 271 µM)	250 mg/L (≈ 543 µM)	62.5 mg/L (≈ 136 µM)	250 mg/L (≈ 543 µM)	250 mg/L (≈ 543 µM)
O=C(NN1C(=O)CCSC1c1ccc(Cl)cc1)c1cnc2c(C(F)(F)F)cccc2c1O (centres undefined)	90%	125 mg/L (≈ 259 µM)	0.067 mg/L (≈ 0.139 µM)	250 mg/L (≈ 519 µM)	62.5 mg/L (≈ 130 µM)	125 mg/L (≈ 259 µM)	250 mg/L (≈ 519 µM)	250 mg/L (≈ 519 µM)
COc1ccc(C2SCCC(=O)N2NC(=O)c2cnc3c(C(F)(F)F)cccc3c2O)cc1 (centres undefined)	70%	250 mg/L (≈ 524 µM)	1.45 mg/L (≈ 3.04 µM)	125 mg/L (≈ 262 µM)	125 mg/L (≈ 262 µM)	250 mg/L (≈ 524 µM)	250 mg/L (≈ 524 µM)	250 mg/L (≈ 524 µM)
COc1cccc(C2SCCC(=O)N2CCCCNc2ccnc3cc(Cl)ccc23)c1 (centres undefined)	42%	250 mg/L (≈ 548 µM)	2.14 mg/L (≈ 4.69 µM)	250 mg/L (≈ 548 µM)	500 mg/L (≈ 1100 µM)	125 mg/L (≈ 274 µM)	250 mg/L (≈ 548 µM)	500 mg/L (≈ 1100 µM)
O=C(NN1C(=O)CCSC1c1cccc(F)c1)c1cnc2c(C(F)(F)F)cccc2c1O (centres undefined)	73%	125 mg/L (≈ 269 µM)	0.91 mg/L (≈ 1.96 µM)	250 mg/L (≈ 537 µM)	125 mg/L (≈ 269 µM)	125 mg/L (≈ 269 µM)	125 mg/L (≈ 269 µM)	250 mg/L (≈ 537 µM)
COc1cccc(C2SCCC(=O)N2CCNc2ccnc3cc(Cl)ccc23)c1 (centres undefined)	58%	250 mg/L (≈ 584 µM)	1.89 mg/L (≈ 4.42 µM)	500 mg/L (≈ 1170 µM)	62.5 mg/L (≈ 146 µM)	500 mg/L (≈ 1170 µM)	250 mg/L (≈ 584 µM)	250 mg/L (≈ 584 µM)
Cc1ccc(C2SCCC(=O)N2NC(=O)c2cnc3c(C(F)(F)F)cccc3c2O)cc1 (centres undefined)	60%	250 mg/L (≈ 542 µM)	1.56 mg/L (≈ 3.38 µM)	250 mg/L (≈ 542 µM)	250 mg/L (≈ 542 µM)	500 mg/L (≈ 1080 µM)	500 mg/L (≈ 1080 µM)	500 mg/L (≈ 1080 µM)
O=C(NN1C(=O)CCSC1c1cccc(Cl)c1)c1cnc2c(C(F)(F)F)cccc2c1O (centres undefined)	71%	250 mg/L (≈ 519 µM)	1.2 mg/L (≈ 2.49 µM)	250 mg/L (≈ 519 µM)	125 mg/L (≈ 259 µM)	250 mg/L (≈ 519 µM)	125 mg/L (≈ 259 µM)	250 mg/L (≈ 519 µM)
COc1ccc(C2SCCC(=O)N2CCNc2ccnc3cc(Cl)ccc23)cc1 (centres undefined)	60%	125 mg/L (≈ 292 µM)	0.62 mg/L (≈ 1.45 µM)	250 mg/L (≈ 584 µM)	250 mg/L (≈ 584 µM)	250 mg/L (≈ 584 µM)	125 mg/L (≈ 292 µM)	250 mg/L (≈ 584 µM)
O=C1CCSC(c2cccc(Cl)c2)N1CCCNc1ccnc2cc(Cl)ccc12 (centres undefined)	55%	250 mg/L (≈ 560 µM)	1.62 mg/L (≈ 3.63 µM)	250 mg/L (≈ 560 µM)	125 mg/L (≈ 280 µM)	250 mg/L (≈ 560 µM)	250 mg/L (≈ 560 µM)	250 mg/L (≈ 560 µM)
O=C1CCSC(c2ccc(Cl)cc2)N1CCCNc1ccnc2cc(Cl)ccc12 (centres undefined)	67%	250 mg/L (≈ 560 µM)	0.12 mg/L (≈ 0.269 µM)	250 mg/L (≈ 560 µM)	125 mg/L (≈ 280 µM)	250 mg/L (≈ 560 µM)	125 mg/L (≈ 280 µM)	62.5 mg/L (≈ 140 µM)
O=C1CCSC(c2ccc(F)cc2)N1CCCNc1ccnc2cc(Cl)ccc12 (centres undefined)	78%	100 mg/L (≈ 233 µM)	0.089 mg/L (≈ 0.207 µM)	125 mg/L (≈ 291 µM)	62.5 mg/L (≈ 145 µM)	100 mg/L (≈ 233 µM)	62.5 mg/L (≈ 145 µM)	31.2 mg/L (≈ 72.7 µM)
O=C1CCSC(c2ccc(Br)cc2)N1CCNc1ccnc2cc(Cl)ccc12 (centres undefined)	95%	31.2 mg/L (≈ 65.5 µM)	0.045 mg/L (≈ 0.0944 µM)	100 mg/L (≈ 210 µM)	31.2 mg/L (≈ 65.5 µM)	31.2 mg/L (≈ 65.5 µM)	125 mg/L (≈ 262 µM)	62.5 mg/L (≈ 131 µM)
O=C(NN1C(=O)CCSC1c1ccc(F)cc1)c1cnc2c(C(F)(F)F)cccc2c1O (centres undefined)	92%	15.6 mg/L (≈ 33.5 µM)	0.052 mg/L (≈ 0.112 µM)	250 mg/L (≈ 537 µM)	31.2 mg/L (≈ 67.1 µM)	125 mg/L (≈ 269 µM)	125 mg/L (≈ 269 µM)	125 mg/L (≈ 269 µM)
O=C1CCSC(c2ccc(Br)cc2)N1CCCCNc1ccnc2cc(Cl)ccc12 (centres undefined)	82%	250 mg/L (≈ 495 µM)	0.064 mg/L (≈ 0.127 µM)	62.5 mg/L (≈ 124 µM)	100 mg/L (≈ 198 µM)	125 mg/L (≈ 248 µM)	62.5 mg/L (≈ 124 µM)	100 mg/L (≈ 198 µM)
O=C1CCSC(c2ccc(O)cc2)N1CCNc1ccnc2cc(Cl)ccc12 (centres undefined)	74%	250 mg/L (≈ 604 µM)	1.78 mg/L (≈ 4.3 µM)	250 mg/L (≈ 604 µM)	62.5 mg/L (≈ 151 µM)	250 mg/L (≈ 604 µM)	500 mg/L (≈ 1210 µM)	250 mg/L (≈ 604 µM)
C=C[C@H]1CN2CC[C@H]1C[C@H]2[C@H](O)c1ccnc2ccc(OC)cc12 [QUININE]			0.271 mg/L (≈ 0.835 µM)					
O=C(O)c1cn(C2CC2)c2cc(N3CCNCC3)c(F)cc2c1=O [CIPROFLOXACIN]				25 mg/L (≈ 75.4 µM)		25 mg/L (≈ 75.4 µM)	25 mg/L (≈ 75.4 µM)	25 mg/L (≈ 75.4 µM)
CCn1cc(C(=O)O)c(=O)c2cc(F)c(N3CCNCC3)cc21 [NORFLOXACIN]		50 mg/L (≈ 157 µM)		10 mg/L (≈ 31.3 µM)	100 mg/L (≈ 313 µM)	10 mg/L (≈ 31.3 µM)	10 mg/L (≈ 31.3 µM)	10 mg/L (≈ 31.3 µM)
